Data taken from patent US20260248722A1, “METHOD FOR CARTILAGE REGENERATION AND REGROWTH FOLLOWING INJURY” (ELUCIDERM INC., priority 2021, published 2026).

Experiments:
[1] = test system: 2 mm biopsy punch wound in the center of the cartilaginous region; conditions: XAV939 dissolved in DMSO; cited from earlier work
CRE, F-κB, or TGF-β = conditions: cited from earlier work
[2] = cited from earlier work
[3] = test system: 2 mm biopsy punch wound in the center of the cartilaginous region of each ear; assay: Cartilage regrowth in mouse ears after 2 mm biopsy punch wound (Example 2); assay type: in vivo, C57Bl/6J mice; conditions: XAV939 in DMSO every day for 30 days
From the text: C57Bl/6J mice were purchased from The Jackson Laboratory (Bar Harbor, ME, USA) and maintained by PPY. C57Bl/6J mice (at least 3 months of age) were anesthetized with 3-5% isoflurane in O2 administered using Tabletop Laboratory Animal Anesthesia System (VetEquip Inc., Pleasanton, CA, USA). A 2 mm biopsy punch wound was made in the center of the cartilaginous region of each ear using a disposable biopsy punch (Acuderm Inc., Fort Lauderdale, FL, USA) as described previously (Rai, M. F. et al, 2021, Arthritis Rheum., 64:2300-2310). […] In order to quantify closure of the wounds, ears were excised following mouse sacrifice, fixed and placed on microscope slides for examination by way of the digital camera being affixed to a Micromaster Inverted microscope (Thermo Fisher Scientific, Waltham, MA, USA). […] Sections of the tissue were then stained with Trichome blues, imaged and analyzed by way of an Olympus DP71 microscope camera (Olympus America, Center Valley, PA, USA). […] For quantification of wound closure, ears were excised after the mice were sacrificed, placed on microscope slides (Denville Scientific, South Plainfield, NJ, USA) and imaged using Nikon Coolpix 8700 affixed to Micromaster Inverted microscope (Thermo Fisher Scientific, Waltham, MA, USA). […]

ear punch wound = conditions: topical application, dissolved in DMSO; cited from earlier work

Compound: Oc1nc(-c2ccc(C(F)(F)F)cc2)nc2c1CSCC2 [XAV939, 3,5,7,8-Tetrahydro-2-[4-(trifluoromethyl)phenyl]-4H-thiopyrano[4,3-d]pyrimidin-4-one]
- cartilage regeneration and healing following acute injury [1]: increased cartilage regeneration and healing
- effect on CRE, F-κB, or TGF-β (CRE, F-κB, or TGF-β): does not affect
- aqueous solubility [2]: < 1 µg/mL
- nature and character of the cartilage regrowth in the wounds, compared to DMSO control [3]: improved
- fibrosis (scarring) (ear punch wound): reduced fibrosis
- rate of wound closure (ear punch wound): significantly increased
